Measured values taken from ChEMBL document CHEMBL3525920, “CYP4F enzymes are responsible for the elimination of fingolimod (FTY720), a novel treatment of relapsing multiple sclerosis” (Drug Metab Dispos, 2011).

Key:
[1] = Retention time of the compound by long gradient-based HPLC-RA analysis; assay type: physicochemical
Cytochrome P450 2D6 = Cytochrome P450 2D6 (Homo sapiens, UniProt P10635); experiment: Activity at human recombinant CYP2D6 expressed in baculovirus-infected BTI-TN-5B1-4 insect cell microsomes assessed as relative abundance of compound formation treated with [14C]fingolimod at 20 uM after 30 mins by HPLC-RA analysis; assay type: ADME; settings: bti-tn-5b1-4, 0.5 h
[2] = Retention time of the compound by symmetry C18 column based LC-MS analysis; assay type: physicochemical
Cytochrome P450 4F2 [3] = biological target: T1, Cytochrome P450 4F2 (Homo sapiens, UniProt P78329); experiment: Activity at human recombinant CYP4F2 expressed in baculovirus-infected BTI-TN-5B1-4 insect cell microsomes assessed as relative abundance of compound formation treated with [14C]fingolimod at 100 uM after 30 mins by HPLC-RA analysis; assay type: ADME; settings: bti-tn-5b1-4, 0.5 h
T1 sequence (P78329 whole entry): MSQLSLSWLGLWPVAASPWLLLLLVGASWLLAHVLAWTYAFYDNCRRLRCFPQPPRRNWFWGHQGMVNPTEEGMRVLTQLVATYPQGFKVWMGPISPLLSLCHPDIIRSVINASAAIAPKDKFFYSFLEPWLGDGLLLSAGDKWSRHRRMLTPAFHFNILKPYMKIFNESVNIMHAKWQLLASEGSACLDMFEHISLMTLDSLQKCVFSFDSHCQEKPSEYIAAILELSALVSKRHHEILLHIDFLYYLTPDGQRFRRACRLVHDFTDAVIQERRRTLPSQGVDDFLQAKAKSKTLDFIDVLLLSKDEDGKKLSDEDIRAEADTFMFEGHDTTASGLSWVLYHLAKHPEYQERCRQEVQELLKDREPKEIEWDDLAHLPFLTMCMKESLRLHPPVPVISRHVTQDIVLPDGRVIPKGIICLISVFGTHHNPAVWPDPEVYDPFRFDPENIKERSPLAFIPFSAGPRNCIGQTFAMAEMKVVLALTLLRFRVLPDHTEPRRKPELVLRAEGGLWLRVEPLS

[4] = Retention time of the compound by C18 advantage armor column based LC-MS analysis; assay type: physicochemical
Cytochrome P450 4F3 = Cytochrome P450 4F3 (Homo sapiens, UniProt Q08477); experiment: Activity at human recombinant CYP4F3B expressed in baculovirus-infected BTI-TN-5B1-4 insect cell microsomes assessed as relative abundance of compound formation treated with [14C]fingolimod at 100 uM after 30 mins by HPLC-RA analysis; assay type: ADME; settings: bti-tn-5b1-4, 0.5 h
[5] = Terminal half life in human; assay type: ADME, organism-based; parameters: dosed compound name Fingolimod; settings: in vivo, read-out: beta t1/2 (converted)
Cytochrome P450 4F2 [6] = biological target: T1, Cytochrome P450 4F2; experiment: Inhibition of human CYP4F2 in human liver microsomes assessed as fingolimod metabolism; assay type: ADME
Cytochrome P450 4F2 [7] = biological target: T1, Cytochrome P450 4F2; experiment: Inhibition of human recombinant CYP4F2 assessed as fingolimod metabolism; assay type: ADME
[8] = substrate: CCCCCCCCc1ccc(CCC(N)(CO)CO)cc1; experiment: Activity at human recombinant CYP4F2 expressed in baculovirus-infected BTI-TN-5B1-4 insect cell microsomes assessed as metabolite formation after 15 mins by Eadie-Hofstee plot analysis; assay type: ADME

Chain of Cytochrome P450 4F3 (Q08477 whole entry): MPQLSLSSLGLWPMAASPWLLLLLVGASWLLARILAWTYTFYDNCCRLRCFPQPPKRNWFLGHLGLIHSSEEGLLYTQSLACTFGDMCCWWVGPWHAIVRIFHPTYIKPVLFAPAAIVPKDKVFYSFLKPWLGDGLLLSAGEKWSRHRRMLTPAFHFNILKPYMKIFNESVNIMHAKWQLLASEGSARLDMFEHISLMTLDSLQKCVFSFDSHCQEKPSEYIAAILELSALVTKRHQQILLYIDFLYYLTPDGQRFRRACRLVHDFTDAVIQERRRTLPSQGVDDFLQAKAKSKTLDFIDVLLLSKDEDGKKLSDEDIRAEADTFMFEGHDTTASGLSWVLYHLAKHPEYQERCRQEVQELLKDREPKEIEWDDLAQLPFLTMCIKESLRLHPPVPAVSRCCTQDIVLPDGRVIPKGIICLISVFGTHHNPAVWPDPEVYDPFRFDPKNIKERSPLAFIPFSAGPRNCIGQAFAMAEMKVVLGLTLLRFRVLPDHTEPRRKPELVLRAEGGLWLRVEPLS
Chain of Cytochrome P450 2D6 (P10635 whole entry): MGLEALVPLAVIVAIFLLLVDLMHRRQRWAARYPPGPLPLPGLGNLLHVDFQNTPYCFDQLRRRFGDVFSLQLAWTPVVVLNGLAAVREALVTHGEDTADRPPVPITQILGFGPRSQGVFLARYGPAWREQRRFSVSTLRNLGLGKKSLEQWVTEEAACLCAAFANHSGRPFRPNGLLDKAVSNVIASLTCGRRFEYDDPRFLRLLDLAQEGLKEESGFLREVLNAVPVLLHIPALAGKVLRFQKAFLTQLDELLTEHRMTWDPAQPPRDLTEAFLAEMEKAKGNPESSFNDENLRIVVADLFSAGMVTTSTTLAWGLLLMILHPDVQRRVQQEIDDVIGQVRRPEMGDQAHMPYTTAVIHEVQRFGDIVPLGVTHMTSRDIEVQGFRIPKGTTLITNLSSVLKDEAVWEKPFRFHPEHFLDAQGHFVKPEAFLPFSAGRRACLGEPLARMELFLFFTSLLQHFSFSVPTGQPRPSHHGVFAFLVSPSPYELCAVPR

NC(CO)(CO)CCc1ccc(CCCCCCCCO)cc1
Retention_time [1]: 34.7 min | Compound recovery (Cytochrome P450 2D6): 1.02% | Retention_time [2]: 32.1 min | Compound recovery (Cytochrome P450 4F2 [3]): 2.99% | Retention_time [4]: 35.4 min | Compound recovery (Cytochrome P450 4F3): 0.84%

CCCCCCCCc1ccc(CCC(N)(CO)CO)cc1 [FINGOLIMOD]
half-life [5]: 120 h

CC(=O)N1CCN(c2ccc(OCC3COC(Cn4ccnc4)(c4ccc(Cl)cc4Cl)O3)cc2)CC1 (stereo unspecified) [KETOCONAZOLE]
Ki (Cytochrome P450 4F2 [6]): 0.74 µM | IC50 (Cytochrome P450 4F2 [7]): 1.6 µM

B1: Cytochrome P450 4F2 (Homo sapiens) (protein)
chain: MSQLSLSWLGLWPVAASPWLLLLLVGASWLLAHVLAWTYAFYDNCRRLRCFPQPPRRNWFWGHQGMVNPTEEGMRVLTQLVATYPQGFKVWMGPISPLLSLCHPDIIRSVINASAAIAPKDKFFYSFLEPWLGDGLLLSAGDKWSRHRRMLTPAFHFNILKPYMKIFNESVNIMHAKWQLLASEGSACLDMFEHISLMTLDSLQKCVFSFDSHCQEKPSEYIAAILELSALVSKRHHEILLHIDFLYYLTPDGQRFRRACRLVHDFTDAVIQERRRTLPSQGVDDFLQAKAKSKTLDFIDVLLLSKDEDGKKLSDEDIRAEADTFMFEGHDTTASGLSWVLYHLAKHPEYQERCRQEVQELLKDREPKEIEWDDLAHLPFLTMCMKESLRLHPPVPVISRHVTQDIVLPDGRVIPKGIICLISVFGTHHNPAVWPDPEVYDPFRFDPENIKERSPLAFIPFSAGPRNCIGQTFAMAEMKVVLALTLLRFRVLPDHTEPRRKPELVLRAEGGLWLRVEPLS
Km [8]: 45 µM | Vmax [8]: 0.00105 µmol/min
